What was measured:
Assay in all cases: biochemical
Parameters in all cases: KINOMEscan competition binding panel, per cent of control
Conditions in all cases: read-out: %Ctrl @ 2800nM
[1] = target: T1, ABL1(M351T)-phosphorylated (Homo sapiens, UniProt P00519, M351T)
T1 construct: phosphorylated
How it was run: (§1)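 Values are expressed as percent of control, calculated as ((test − positive control)/(negative control − positive control)) × 100, so lower numbers mean stronger hits. Binding was measured by KINOMEscan competition assay in a 450-kinase human panel including disease mutants, using the contractor's validated protocol.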

ACVR1 = ACVR1 (Homo sapiens, UniProt Q04771)
How it was run: as §1

ACVR2A = ACVR2A (Homo sapiens, UniProt P27037)
How it was run: as §1

AURKA = AURKA (Homo sapiens, UniProt O14965)
How it was run: as §1

BMPR1A = BMPR1A (Homo sapiens, UniProt P36894)
How it was run: as §1

BRAF(V600E) = BRAF(V600E) (Homo sapiens, UniProt P15056, V600E)
How it was run: as §1

CAMK2B = CAMK2B (Homo sapiens, UniProt Q13554)
How it was run: as §1

CSNK1G1 = CSNK1G1 (Homo sapiens, UniProt Q9HCP0)
How it was run: as §1

CSNK1G3 = CSNK1G3 (Homo sapiens, UniProt Q9Y6M4)
How it was run: as §1

EPHA2 = EPHA2 (Homo sapiens, UniProt P29317)
How it was run: as §1

EPHA3 = EPHA3 (Homo sapiens, UniProt P29320)
How it was run: as §1

FGFR3 = FGFR3 (Homo sapiens, UniProt P22607)
How it was run: as §1

FLT3(ITD,D835V) = FLT3(ITD,D835V) (Homo sapiens, UniProt P36888, D835V/ITD)
How it was run: as §1

FRK = FRK (Homo sapiens, UniProt P42685)
How it was run: as §1

INSR = INSR (Homo sapiens, UniProt P06213)
How it was run: as §1

[2] = target: T2, JAK3(JH1domain-catalytic) (Homo sapiens, UniProt P52333)
T2 construct: JH1domain-catalytic
How it was run: as §1

JNK2 = target: T3, JNK2 (Homo sapiens, UniProt P45984)
T3 construct: gene MAPK9
How it was run: as §1

KIT(A829P) = KIT(A829P) (Homo sapiens, UniProt P10721, A829P)
How it was run: as §1

LATS1 = LATS1 (Homo sapiens, UniProt O95835)
How it was run: as §1

NEK4 = NEK4 (Homo sapiens, UniProt P51957)
How it was run: as §1

PCTK1 = target: T4, PCTK1 (Homo sapiens, UniProt Q00536)
T4 construct: gene CDK16
How it was run: as §1

PIK3CG = PIK3CG (Homo sapiens, UniProt P48736)
How it was run: as §1

S6K1 = target: T5, S6K1 (Homo sapiens, UniProt P23443)
T5 construct: gene RPS6KB1
How it was run: as §1

SRPK3 = SRPK3 (Homo sapiens, UniProt Q9UPE1)
How it was run: as §1

STK36 = STK36 (Homo sapiens, UniProt Q9NRP7)
How it was run: as §1

SgK110 = target: T6, SgK110 (Homo sapiens, UniProt P0C264)
T6 construct: gene SBK3
How it was run: as §1

Chain of PIK3CG (P48736 whole entry): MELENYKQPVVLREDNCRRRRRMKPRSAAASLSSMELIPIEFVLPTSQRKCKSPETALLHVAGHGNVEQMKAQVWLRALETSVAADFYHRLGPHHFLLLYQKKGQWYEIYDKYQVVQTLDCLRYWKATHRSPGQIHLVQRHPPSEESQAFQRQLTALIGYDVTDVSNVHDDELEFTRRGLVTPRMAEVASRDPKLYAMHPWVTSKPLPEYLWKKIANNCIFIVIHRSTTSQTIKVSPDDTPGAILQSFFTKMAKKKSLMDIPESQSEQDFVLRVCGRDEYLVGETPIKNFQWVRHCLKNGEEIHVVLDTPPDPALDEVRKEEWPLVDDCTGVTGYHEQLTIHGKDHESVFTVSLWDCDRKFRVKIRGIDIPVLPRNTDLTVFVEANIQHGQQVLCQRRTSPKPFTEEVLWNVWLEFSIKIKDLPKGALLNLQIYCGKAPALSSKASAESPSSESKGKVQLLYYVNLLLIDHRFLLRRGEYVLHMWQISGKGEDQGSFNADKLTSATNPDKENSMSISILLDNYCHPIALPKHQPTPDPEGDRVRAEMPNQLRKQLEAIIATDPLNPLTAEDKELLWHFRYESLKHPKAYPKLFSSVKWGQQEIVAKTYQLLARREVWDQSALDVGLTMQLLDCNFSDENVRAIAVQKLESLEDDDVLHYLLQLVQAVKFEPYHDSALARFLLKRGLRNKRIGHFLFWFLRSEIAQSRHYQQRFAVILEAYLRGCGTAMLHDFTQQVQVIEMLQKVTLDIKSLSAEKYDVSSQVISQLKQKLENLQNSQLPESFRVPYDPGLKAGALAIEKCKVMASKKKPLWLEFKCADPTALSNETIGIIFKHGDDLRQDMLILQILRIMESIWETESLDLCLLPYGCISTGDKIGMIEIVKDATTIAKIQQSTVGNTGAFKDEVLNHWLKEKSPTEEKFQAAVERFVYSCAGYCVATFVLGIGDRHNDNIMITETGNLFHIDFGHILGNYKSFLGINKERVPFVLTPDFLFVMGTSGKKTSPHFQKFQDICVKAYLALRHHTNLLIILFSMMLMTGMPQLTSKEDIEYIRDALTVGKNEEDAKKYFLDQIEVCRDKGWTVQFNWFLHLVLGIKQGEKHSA
Chain of FRK (P42685 whole entry): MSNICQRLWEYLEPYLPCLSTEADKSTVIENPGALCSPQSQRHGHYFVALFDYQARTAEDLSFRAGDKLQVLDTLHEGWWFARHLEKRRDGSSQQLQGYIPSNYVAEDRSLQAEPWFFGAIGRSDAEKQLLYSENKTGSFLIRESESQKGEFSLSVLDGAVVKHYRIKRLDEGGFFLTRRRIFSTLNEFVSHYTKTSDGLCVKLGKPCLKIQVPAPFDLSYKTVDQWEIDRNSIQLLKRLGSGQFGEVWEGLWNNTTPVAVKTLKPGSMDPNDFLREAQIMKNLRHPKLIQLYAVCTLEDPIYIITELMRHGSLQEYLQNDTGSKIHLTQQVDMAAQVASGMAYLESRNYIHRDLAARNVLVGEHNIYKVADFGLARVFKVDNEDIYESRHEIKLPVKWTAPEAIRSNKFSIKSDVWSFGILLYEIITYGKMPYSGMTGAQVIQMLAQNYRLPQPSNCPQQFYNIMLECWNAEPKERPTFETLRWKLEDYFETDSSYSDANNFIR
Chain of ACVR1 (Q04771 whole entry): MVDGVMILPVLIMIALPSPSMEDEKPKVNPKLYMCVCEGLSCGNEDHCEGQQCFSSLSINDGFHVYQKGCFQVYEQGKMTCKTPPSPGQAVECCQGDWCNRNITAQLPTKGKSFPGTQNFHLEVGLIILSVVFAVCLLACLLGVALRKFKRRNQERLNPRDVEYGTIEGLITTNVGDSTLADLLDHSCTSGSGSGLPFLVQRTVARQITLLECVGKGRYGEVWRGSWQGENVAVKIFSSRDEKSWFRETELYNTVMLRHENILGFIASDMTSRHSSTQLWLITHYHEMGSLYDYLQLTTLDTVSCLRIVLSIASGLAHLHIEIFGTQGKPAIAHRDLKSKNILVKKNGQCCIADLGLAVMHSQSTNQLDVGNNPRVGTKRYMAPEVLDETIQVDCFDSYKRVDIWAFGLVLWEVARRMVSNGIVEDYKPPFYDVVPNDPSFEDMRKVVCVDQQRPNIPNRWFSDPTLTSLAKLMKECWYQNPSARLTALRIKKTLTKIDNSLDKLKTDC
Chain of INSR (P06213 whole entry): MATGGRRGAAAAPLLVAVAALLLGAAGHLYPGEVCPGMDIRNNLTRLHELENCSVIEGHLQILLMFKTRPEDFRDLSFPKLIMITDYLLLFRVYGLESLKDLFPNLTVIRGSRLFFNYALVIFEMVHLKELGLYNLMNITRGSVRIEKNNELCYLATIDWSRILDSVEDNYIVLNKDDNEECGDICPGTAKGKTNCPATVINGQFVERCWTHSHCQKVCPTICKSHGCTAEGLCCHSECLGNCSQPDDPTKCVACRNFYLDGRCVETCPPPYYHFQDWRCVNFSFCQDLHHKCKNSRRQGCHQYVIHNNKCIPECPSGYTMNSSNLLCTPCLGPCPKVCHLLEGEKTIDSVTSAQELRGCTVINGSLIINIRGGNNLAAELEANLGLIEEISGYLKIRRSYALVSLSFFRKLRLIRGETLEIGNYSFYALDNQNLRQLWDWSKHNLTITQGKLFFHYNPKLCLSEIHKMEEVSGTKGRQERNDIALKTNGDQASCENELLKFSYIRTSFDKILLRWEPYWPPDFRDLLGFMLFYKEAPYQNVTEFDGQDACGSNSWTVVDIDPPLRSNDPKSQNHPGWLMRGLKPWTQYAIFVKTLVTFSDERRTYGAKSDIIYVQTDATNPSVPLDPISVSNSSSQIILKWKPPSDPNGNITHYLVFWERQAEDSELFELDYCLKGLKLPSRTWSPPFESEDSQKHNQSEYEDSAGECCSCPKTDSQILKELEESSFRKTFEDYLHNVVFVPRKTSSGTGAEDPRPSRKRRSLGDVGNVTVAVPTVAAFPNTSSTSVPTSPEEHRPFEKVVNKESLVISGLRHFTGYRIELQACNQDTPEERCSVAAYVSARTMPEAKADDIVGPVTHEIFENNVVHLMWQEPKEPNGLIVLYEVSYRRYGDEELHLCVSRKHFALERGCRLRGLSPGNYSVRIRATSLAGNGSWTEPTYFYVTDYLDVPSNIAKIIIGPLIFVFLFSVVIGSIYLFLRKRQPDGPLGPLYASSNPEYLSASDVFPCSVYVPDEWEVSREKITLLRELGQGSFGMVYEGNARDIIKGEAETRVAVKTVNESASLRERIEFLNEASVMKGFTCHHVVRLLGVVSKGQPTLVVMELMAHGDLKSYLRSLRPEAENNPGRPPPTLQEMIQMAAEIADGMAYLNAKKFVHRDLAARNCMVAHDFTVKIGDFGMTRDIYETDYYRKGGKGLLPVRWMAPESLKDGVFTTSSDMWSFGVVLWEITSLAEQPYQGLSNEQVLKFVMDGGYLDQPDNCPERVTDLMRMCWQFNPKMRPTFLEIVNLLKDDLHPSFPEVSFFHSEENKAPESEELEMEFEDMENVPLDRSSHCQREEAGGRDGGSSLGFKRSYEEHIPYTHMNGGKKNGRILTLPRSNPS
Chain of SRPK3 (Q9UPE1 whole entry): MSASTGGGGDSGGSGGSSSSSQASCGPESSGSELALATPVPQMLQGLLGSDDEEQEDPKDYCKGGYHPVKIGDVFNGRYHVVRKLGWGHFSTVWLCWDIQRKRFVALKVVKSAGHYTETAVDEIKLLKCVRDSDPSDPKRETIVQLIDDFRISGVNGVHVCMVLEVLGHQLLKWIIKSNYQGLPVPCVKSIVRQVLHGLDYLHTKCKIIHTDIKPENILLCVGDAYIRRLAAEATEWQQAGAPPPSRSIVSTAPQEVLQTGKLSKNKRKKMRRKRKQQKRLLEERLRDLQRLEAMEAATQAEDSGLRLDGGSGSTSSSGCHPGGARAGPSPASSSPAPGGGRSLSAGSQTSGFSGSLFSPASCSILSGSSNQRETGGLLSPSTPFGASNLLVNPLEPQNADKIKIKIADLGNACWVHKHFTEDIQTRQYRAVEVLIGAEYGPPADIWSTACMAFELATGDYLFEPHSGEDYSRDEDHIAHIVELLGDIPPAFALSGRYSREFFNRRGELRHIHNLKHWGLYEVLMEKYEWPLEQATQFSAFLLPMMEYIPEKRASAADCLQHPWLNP
Chain of FGFR3 (P22607 whole entry): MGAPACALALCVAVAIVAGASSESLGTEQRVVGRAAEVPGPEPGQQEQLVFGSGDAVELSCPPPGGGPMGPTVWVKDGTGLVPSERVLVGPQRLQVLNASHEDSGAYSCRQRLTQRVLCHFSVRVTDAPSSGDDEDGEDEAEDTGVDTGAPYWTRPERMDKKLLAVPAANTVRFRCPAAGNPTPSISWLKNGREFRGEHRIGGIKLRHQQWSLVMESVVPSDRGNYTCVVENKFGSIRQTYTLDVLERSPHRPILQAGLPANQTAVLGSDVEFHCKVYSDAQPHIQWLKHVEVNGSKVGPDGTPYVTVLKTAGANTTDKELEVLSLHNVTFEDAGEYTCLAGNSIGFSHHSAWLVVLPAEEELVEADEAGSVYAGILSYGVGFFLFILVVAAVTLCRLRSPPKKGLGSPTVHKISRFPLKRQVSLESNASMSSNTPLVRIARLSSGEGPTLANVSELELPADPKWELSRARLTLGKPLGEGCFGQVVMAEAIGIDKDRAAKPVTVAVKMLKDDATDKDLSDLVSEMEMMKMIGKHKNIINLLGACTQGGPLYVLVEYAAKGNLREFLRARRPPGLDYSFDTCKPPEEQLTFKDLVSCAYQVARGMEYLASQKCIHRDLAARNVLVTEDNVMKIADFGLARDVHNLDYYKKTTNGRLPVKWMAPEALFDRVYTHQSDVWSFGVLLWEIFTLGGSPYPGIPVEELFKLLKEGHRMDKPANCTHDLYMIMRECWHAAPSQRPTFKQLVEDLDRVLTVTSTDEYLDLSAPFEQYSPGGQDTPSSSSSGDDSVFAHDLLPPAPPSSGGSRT

Which results are given for `[O-][S@@+](Cc1cncs1)C(c1ccccc1)c1ccccc1` [S-CE-123, (S)-5-((Benzhydrylsulfinyl)Methyl)Thiazole]?
remaining binding at 2.8 µM [1]: 100%; remaining binding at 2.8 µM (ACVR1): 99%; remaining binding at 2.8 µM (ACVR2A): 100%; remaining binding at 2.8 µM (AURKA): 91%; remaining binding at 2.8 µM (BMPR1A): 100%; remaining binding at 2.8 µM (BRAF(V600E)): 100%; remaining binding at 2.8 µM (CAMK2B): 87%; remaining binding at 2.8 µM (CSNK1G1): 96%; remaining binding at 2.8 µM (CSNK1G3): 98%; remaining binding at 2.8 µM (EPHA2): 73%; remaining binding at 2.8 µM (EPHA3): 97%; remaining binding at 2.8 µM (FGFR3): 91%; remaining binding at 2.8 µM (FLT3(ITD,D835V)): 100%; remaining binding at 2.8 µM (FRK): 96%; remaining binding at 2.8 µM (INSR): 100%; remaining binding at 2.8 µM [2]: 100%; remaining binding at 2.8 µM (JNK2): 90%; remaining binding at 2.8 µM (KIT(A829P)): 98%; remaining binding at 2.8 µM (LATS1): 93%; remaining binding at 2.8 µM (NEK4): 83%; remaining binding at 2.8 µM (PCTK1): 97%; remaining binding at 2.8 µM (PIK3CG): 70%; remaining binding at 2.8 µM (S6K1): 90%; remaining binding at 2.8 µM (SRPK3): 76%; remaining binding at 2.8 µM (STK36): 88%; remaining binding at 2.8 µM (SgK110): 72%
